Measurements reported in patent publication US8557265B2, “Use of a synergistic composition as a therapeutic agent of disinfectant” (Bode Chemie GmbH, priority 2007, dated 2013).

Assays:
Assay type in all cases: cell-based
Escherichia coli = test: Test for antimicrobial action, colony count after plating; details: cell count of 106 in 50 μl mixed 1:1; incubation time 2 minutes; plated, 37° C.
Description: (§1) Fresh cultures of the indicated microorganisms were adjusted to a cell count of […] in 50 μl and then mixed in a 1:1 ratio with 50 μl of water 70% ethanol or the invented agent (100 mM ascorbic acid, 10 mM FeCl3, and 0.5% SDS). After an incubation time of 2 minutes, the 100 μl batches with the bacteria were plated out on corresponding growth dishes. After an incubation of 1-3 days at 28° C. (Saccharomyces cerevisiae and Candida parapsilosis) or 37° C. (Escherichia coli and Bacillus subtilis), the number of grown colonies was determined. In the batches with sterile water, all microorganisms survived.

Bacillus subtilis = test: as above; details: cell count of 106 in 50 μl mixed 1:1; incubation time 2 minutes; plated, 37° C.
Description: as §1

Saccharomyces cerevisiae = test: as above; details: cell count of 106 in 50 μl mixed 1:1; incubation time 2 minutes; plated, 28° C.
Description: as §1

Candida parapsilosis = test: as above; details: cell count of 106 in 50 μl mixed 1:1; incubation time 2 minutes; plated, 28° C.
Description: as §1

[1] = system: genomic DNA and extrachromosomal plasmid (Yep351) of recombinant Escherichia coli strain; test: Breakdown of genomic DNA and extrachromosomal plasmid DNA in microorganisms, gel electrophoresis (FIG. 1); details: E. coli suspension, lysozyme 5 minutes, then 5 minutes with 5 μl of solution
Description: A recombinant Escherichia coli strain with an extrachromosomal plasmid (Yep351) was cultivated overnight in LB amp medium. Every 5 μl of this E. coli suspension were treated with 5 μl of lysozyme solution (1 mg/ml) for 5 minutes and then incubated for another 5 minutes with 5 μl of the indicated solutions (1-5). After adding bromophenol blue, the samples were placed in the gel bags and the DNA molecules were separated by electrophoresis.

Structure (SMILES) | number of grown colonies (Escherichia coli) | number of grown colonies (Bacillus subtilis) | number of grown colonies (Saccharomyces cerevisiae) | number of grown colonies (Candida parapsilosis) | effect on DNA molecules in gel electrophoresis [1]
CCO [70% ethanol, ethanol] | 0 | 0 | 0 | 0 | precipitation of the cell lysate and the DNA
CCCCCCCCCCCCOS(=O)(=O)[O-].[Na+] [sample 3, SDS] | – | – | – | – | lysis of the cells
